In patent US6974702B2, “Fourier transform mass spectrometry of complex biological samples” (Esperion Therapeutics, Inc., priority 2000, dated 2005):

Assays:
[1] = HICS-FTMS of plasma from rats treated by oral gavage; assay type: in vivo; conditions: rat plasma, 100 mg/kg daily by oral gavage for one week, versus untreated rats
Protocol: Three rats were treated daily with 100 mg/kg of 6-(6-hydroxy-5,5-dimethylhexyloxy)-2,2-dimethyl-hexan-1-ol by oral gavage, over the course of one week. 6-(6-hydroxy-5,5-dimethylhexyloxy)-2,2-dimethyl-hexon-1-ol increases HDL-cholesterol and improves glucose utilization in experimental rats (see U.S. application Ser. No. 09/540,738 , filed Mar. 31, 2000). At the end of the week, blood was drawn from each of the three rats, as well as from three control (untreated) rats. The blood was allowed to coagulate, and the plasma was prepared for FTMS by adding a water and methanol solution (49:49:2, water:methanol:acetic acid v:v:v) each of the plasma preparations. The mixture was chilled to precipitate the proteins to the bottom of the tube. Each tube was centrifuged, the supernatant decanted and the sample desalted by adding approximately 100 mg of DOWEX ion exchange resin to each vial and incubating the sample with the resin for approximately 10 minutes. The sample was then centrifuged and the supernatant removed. This solution was then introduced to the FT mass spectrometer.

[2] = experimental rats; see U.S. application Ser. No. 09/540,738; cited from earlier work
[3] = system: primary rat hepatocyte cells; assay: FTMS of extracts of primary rat hepatocytes treated with lovastatin; assay type: cell-based; conditions: lovastatin 0.03 to 30 μM for 4 hours, normalized against untreated
Protocol: A male Sprague-Dawley rat was anesthetized by administration of sodium pentobarbitol by at 50 mg/kg body mass be intraperitoneal injection. In situ perfusion of the liver was performed as follows. The abdomen of the animal was opened, the portal vein was cannulated, and the liver perfused with WOSH solution (149 mM NaCl, 9.2 mM Na HEPES, 1.7 mM fructose, 0.5 mM EGTA, 10 U/ml heparin, pH 7.5) at a flow rate of 30 ml/min for 6 minutes. To digest the liver, DSC solution (6.7 mM KCl, 143 mM NaCl, 9.2 mM Na HEPES, 5 mM CaCl2-2H2O, 1.7 mM fructose, 0.2% BSA, 100 U/ml collagenase Type I, 80 U/ml, 160 BAEE/ml trypsin inhibitor, pH 7.5) was perfused through the liver at a flow rate of 30 ml/min for 6 minutes at a temperature of 37° C. After digestion, cells were dispersed in a solution of DMEM- (DMEM containing 2mM GlutMax-1, 0.2% BSA, 5% FBS, 12 nM insulin, 1.2 μM hydrocortisone) to stop the digestion process. The crude cell suspension was filtered through three layers of stainless steel mesh with pore sizes of 250, 106, and 75 um respectively. Filtered cells were centrifuged at 50×g for two minutes and the supernatant discarded. […]
All measurements were carried out on a Bruker APEX II FTMS equipped with a 7.0 Tesla magnet. […] The accurate mass data was then analyzed using Tcl/Tk routines, which serially search the mass spectra from each well for chemical composition of metabolic products. […]

Structure (SMILES) | intensity of FTMS peak of molecular mass approximately 766.4 Daltons [1] | intensity of FTMS peak of molecular mass approximately 766.8 Daltons [1] | HDL-cholesterol [2] | glucose utilization [2] | relative intensity of FTMS peak at molecular mass 85.02815 [3] | relative intensity of FTMS peak at molecular mass 85.64405 [3]
CC(C)(CO)CCCCOCCCCC(C)(C)CO [6-(6-hydroxy-5,5-dimethylhexyloxy)-2,2-dimethyl-hexan-1-ol] | reproducibly higher intensities | reproducibly higher intensities | increases | improves | – | –
CC[C@H](C)C(=O)O[C@H]1C[C@@H](C)C=C2C=C[C@H](C)[C@H](CC[C@@H]3C[C@@H](O)CC(=O)O3)[C@H]21 [lovastatin] | – | – | – | – | decreasing trend | increasing trend
